Experimental data published in patent publication US11192932B2, “Heparin-binding domain of IGFBP-2 in the treatment of metabolic disorders” (Amolyt Pharma, priority 2018, dated 2021).
“Also recorded” adds a separate entry of the source.

Tests used:
[1] = system: C2C12 mouse skeletal muscle myotubes; assay: 3H-2-deoxyglucose uptake by fully differentiated C2C12 myotubes; format: cell-based; conditions: C2C12 myotubes, SEQ ID NO: 73 alone or together with insulin (FIG. 8)
Procedure: In particular: HBD1 SEQ ID NO: 73 (C18:0-HLGLEEPKK) at 0.8 μM, 1.5 μM, and 2.3 μM; or 1.5 μM SEQ ID NO: 73 (C18:0-HLGLEEPKK) for 2, 4, and 16 hours prior to testing glucose uptake.
The studies were performed using cultured, fully differentiated C2C12 mouse skeletal muscle myotubes. The cells were prepared by growing C2C12 cells to confluent density in DMEM with 25 mM glucose and 10% fetal bovine serum in 24 well plates. At this time, the medium was changed to differentiation medium (DMEM with 25 mM glucose and 2% horse serum) for 6 days with medium changed every third day. The various treatments were diluted in serum-free medium and, after washing the cells with serum-free medium, were added to the cells and incubated for 2 hours or alternative times, depending on the treatment. At the end of incubation period, the media was removed and 1.0 ml of glucose-free Krebs ringer bicarbonate buffer (pH 7.4), containing the same treatments, was added and incubation continued for 10 minutes. At the end of the 10 min incubation period, ^3H-2-deoxyglucose ([…]) (specific activity=8 Ci/mmole) was added directly to all wells, and the incubation continued for an additional […]. The wells were then rinsed three times with ice cold phosphate buffered saline, the cells were extracted with 0.5 N NaOH, and the ^3H-2-deoxyglucose content of the cell lysate quantitated by scintillation counting.

AMPK = AMPK phosphorylation (immunoblot anti-pAMPK T172) in C2C12 myotubes; format: cell-based, mouse; conditions: C2C12 myotubes treated with SEQ ID NO: 73 (FIG. 7)
Procedure: In particular: HBD1 SEQ ID NO: 73 (C18:0-HLGLEEPKK). The AMPK pathway is both insulin and IGF1 independent, but acts ultimately to induce GLUT4 translocation to the cell membrane to facilitate the uptake and metabolism of glucose.
For signaling studies the cells were prepared the same way except 6-well plates were used. After 6 days incubation in differentiating medium, the cells were washed with serum-free medium. The various treatments were then added in serum free medium containing 0.1% BSA. HBD1 peptides were added and incubated for 8 hours. When utilizing IGF-I, incubation was for 15 minutes after IGF-1 addition. Following incubation the cells were lysed in RIPA buffer and sonicated. The cell lysate was centrifuged and the supernatant analyzed for either Akt or AMPK by SDS PAGE using a 10% gel followed by immunoblotting with the appropriate antibody.
To examine further the intracellular transduction pathways utilized by the HBD1 peptides, following treatment with HBD1 peptide SEQ ID NO: 73 (C18:0-HLGLEEPKK), cell lysate proteins, were separated by SDS PAGE and immunoblotted with anti-pAMPK T172.

3T3-LI adipocytes = assay: [3H]-2-deoxyglucose uptake by fully differentiated 3T3-LI adipocytes; format: cell-based, mouse; conditions: 3 μg/ml for 24 hours
Procedure: The cells were exposed to the test compounds at a concentration of 3 μg/ml for 24 hours before testing for [^3H]-2-deoxyglucose uptake.
3T3-LI cells are a mouse fibroblast cell line which when cultured under specific conditions, differentiate into adipocytes.
Differentiation of 3T3-LI cells into adipocytes was achieved using the following protocol. 3T3-L1 cells were seeded in 24-well plates and cultured in 3T3-L1 maintenance medium (DMEM containing 10% fetal bovine serum, 4 mM L-glutamine 1 mM, sodium pyruvate) until the cells were 100% confluent. The cells were then fed with 3T3-L1 maintenance medium and cultured for a further 48 h. To initiate differentiation into adipocytes, the medium was changed to Differentiation medium 1 (DMEM containing 10% fetal bovine serum, 4 mM L-glutamine, 1 mM sodium pyruvate, 0.5 mM IBMX, […]), and cultured for a further 2 days. The medium was then changed to Differentiation medium 2 (DMEM containing 10% fetal bovine serum, 4 mM L-glutamine, 1 mM sodium pyruvate, 1 mg/ml insulin), and cultured for a further 2 days. The medium was then changed to Adipocyte Maintenance medium (DMEM containing 10% fetal bovine serum, 4 mM L-glutamine, 1 mM sodium pyruvate), and cultured for a further 7 days. During this time, the medium was changed every other day. The now fully differentiated adipocytes were utilized for glucose uptake experiments (day 11 from initiation of differentiation). Stock solutions of the HBD1 peptides to be tested were prepared by dilution with 0.9% NaCl solution under sterile conditions in a laminar flow cabinet to a concentration of 1 mg/ml, based on net peptide content. The solutions were homogenized by gentle inversion. Test items were prepared from the stock solutions, and remaining stock solution was aliquoted and stored at −20° C. and used without repeated freeze-thaw cycles.
Glucose uptake experiments were carried our using the following protocol. Prior to beginning the experiment, 100 ml of Krebs Ringer bicarbonate buffer (KRBB)(25 mM Hepes pH 7.4, 118 mM NaCl, 5 mM NaHCO3, 4.7 mM KCl, 1.2 mM KH2PO4, 1.2 mM MgSO4, 2.5 mM CaCl2, 0.2% BSA—Filtered using a 0.2 μm filter) and 100 ml of Incubation medium (DMEM containing 4 mM L-glutamine, 1 mM sodium pyruvate, 1% penicillin streptomycin, 0.2% BSA—Filtered using a 0.2 μm filter) were pre-warmed to 37° C., and 500 ml of KRBB was chilled on ice. Stock solutions of test compounds were diluted to 3 μg/ml final concentrations in pre-warmed Incubation medium and in pre-warmed KRBB. Insulin (positive control), previously diluted 1:1000 in sterile 0.9% NaCl, was further diluted in 10 ml of both medium and buffer to a final concentration of 1 nM. All traces of the medium were carefully removed from the cells using a fine tip. […]

mice = conditions: publication Xi, 2013; cited from earlier work

Molecule | effect of blocker on SEQ ID NO: 73-stimulated glucose uptake [1] | effect of blocker on SEQ ID NO: 73-induced AMPK phosphorylation (AMPK) | glucose uptake by 3T3-LI adipocytes (3T3-LI adipocytes) | body weight and fat accumulation (mice) | glucose tolerance (mice)
c1cc(-c2cnn3cc(-c4ccc(OCCN5CCCCC5)cc4)cnc23)ccn1 [Compound C, reference compound] | completely abolished; also recorded: prevented | completely abolished; also recorded: prevented | – | – | –
HHLGLEEPKK [SEQ ID NO: 16] | – | – | stimulated increased glucose uptake | – | –
HLGLEEPKK [SEQ ID NO: 10] | – | – | stimulated increased glucose uptake | – | –
KHHLGLEEPKKLR [SEQ ID NO: 1] | – | – | stimulated increased glucose uptake | decrease body weight and fat accumulation | no effect
